# Measured values reported in US9580726B2, “Tomato plants comprising transgenic event Bs2-X5” (priority 2013, dated 2017).
# Counter-ions that a name gives are not always drawn. Like-named read-outs stand apart in the source and are kept apart here.
# Legend:
# [1] = system: bacterial spot disease on tomato; conditions: cited from earlier work
# [2] = system: Xanthomonas bacterial isolates; type: cell-based, Xanthomonas perforans; conditions: 200 μg/ml, 3 days
# Protocol: The bacterial isolates were also tested for sensitivity to the bactericides, streptomycin and copper using established procedures. All strains were tested for growth on media with either streptomycin sulfate (200 μg/ml) or copper sulfate (pentahydrate) 200 μg/ml (0.8 mM)) after 3 days, [38].
# [3] = Collier, zone III, Florida 47, 20 strains isolated (r19)
# [4] = Collier, zone III, Grape, 18 strains isolated (r22)
# [5] = Collier, zone III, Grape, 20 strains isolated (r21)
# [6] = Collier, zone III, Large Fruit, 19 strains isolated (r23)
# [7] = Collier, zone III, Roma, 20 strains isolated (r20)
# [8] = Decatur, GA, zone V, Large Fruit, 19 strains isolated (r39)
# [9] = Decatur, GA, zone V, Large Fruit, 20 strains isolated (r41)
# [10] = Decatur, GA, zone V, Large Fruit, 20 strains isolated (r43)
# [11] = Gadsden, zone V, Large Fruit, 19 strains isolated (r37)
# [12] = Gadsden, zone V, Large Fruit, 20 strains isolated (r35)
# [13] = Manatee, zone IV, Large Fruit, 20 strains isolated (r25)
# [14] = Manatee, zone IV, Large Fruit, 20 strains isolated (r27)
# [15] = Manatee, zone IV, Large Fruit, 20 strains isolated (r29)
# [16] = Manatee, zone IV, Large Fruit, 20 strains isolated (r31)
# [17] = Manatee, zone IV, Large Fruit, 20 strains isolated (r33)
# [18] = Miami Dade, zone I, Large Fruit, 13 strains isolated (r13)
# [19] = Miami Dade, zone I, Large Fruit, 15 strains isolated (r9)
# [20] = Miami Dade, zone I, Large Fruit, 20 strains isolated (r11)
# [21] = Miami Dade, zone I, Plum, 20 strains isolated (r15)
# [22] = Palm Beach, zone II, Heirloom varieties, 14 strains isolated (r17)
# [23] = Totals, 377 strains isolated (r45)
Compound,"Bactericide Resistance: number of resistant strains [2, 3]","Bactericide Resistance: number of resistant strains [2, 4]","Bactericide Resistance: number of resistant strains [2, 5]","Bactericide Resistance: number of resistant strains [2, 6]","Bactericide Resistance: number of resistant strains [2, 7]","Bactericide Resistance: number of resistant strains [2, 8]","Bactericide Resistance: number of resistant strains [2, 9]","Bactericide Resistance: number of resistant strains [2, 10]","Bactericide Resistance: number of resistant strains [2, 11]","Bactericide Resistance: number of resistant strains [2, 12]","Bactericide Resistance: number of resistant strains [2, 13]","Bactericide Resistance: number of resistant strains [2, 14]","Bactericide Resistance: number of resistant strains [2, 15]","Bactericide Resistance: number of resistant strains [2, 16]","Bactericide Resistance: number of resistant strains [2, 17]","Bactericide Resistance: number of resistant strains [2, 18]","Bactericide Resistance: number of resistant strains [2, 19]","Bactericide Resistance: number of resistant strains [2, 20]","Bactericide Resistance: number of resistant strains [2, 21]","Bactericide Resistance: number of resistant strains [2, 22]",further results
[Cu+2].[OH-].[OH-] [Copper hydroxide],,,,,,,,,,,,,,,,,,,,,"Significant difference between treatment and untreated control: Foliar Rating ([1]; 2008, TN, Ref [3]): No; Significant difference between treatment and untreated control: Marketable Yield ([1]; 2008, TN, Ref [3]): No; Significant difference between treatment and untreated control: AUDPC ([1]; 2009, OH, Ref [4]): No; Significant difference between treatment and untreated control: Marketable Yield ([1]; 2009, OH, Ref [4]): No; Significant difference between treatment and untreated control: Foliar Rating ([1]; 2009, OH, Ref [4], foliar symptoms lower on copper treated plots, fruit symptoms not): Yes^f; Significant difference between treatment and untreated control: AUDPC ([1]; 2010, FL, Ref [6]): Yes^h; Significant difference between treatment and untreated control: Foliar Rating ([1]; 2010, FL, Ref [6]): No^h; Significant difference between treatment and untreated control: Marketable Yield ([1]; 2010, FL, Ref [6]): No"
"O.O.O.O.O.O=S(=O)([O-])[O-].[Cu+2] [Cu, copper sulfate (pentahydrate)]",20,14,20,19,20,19,20,20,19,20,20,20,20,20,20,13,15,20,20,14,"Bactericide Resistance: number of resistant strains [2, 23]: 377; Bactericide Resistance: number of resistant strains ([2]; Totals, 377 strains isolated (r45), listed as copper): all current field strains were found to be resistant"
"[H]/N=C(/N)N[C@H]1[C@H](O)[C@@H](O)[C@H](O[C@@H]2O[C@@H](C)[C@](O)(C=O)[C@H]2O[C@@H]2O[C@@H](CO)[C@H](O)[C@@H](O)[C@@H]2NC)[C@@H](N/C(N)=N\[H])[C@@H]1O [St, streptomycin sulfate]",0,0,0,0,0,0,0,0,0,0,0,0,0,1,0,0,0,19,0,0,"Bactericide Resistance: number of resistant strains [2, 23]: 20; Bactericide Resistance: number of resistant strains ([2]; Totals, 377 strains isolated (r45), listed as streptomycin): streptomycin resistant strains were found in two of our survey collection areas"
